Test results reported in ChEMBL document CHEMBL1146245, “Antitumor agents. 258. Syntheses and evaluation of dietary antioxidant--taxoid conjugates as novel cytotoxic agents” (2007).
Converted amounts (≈) assume the structure as drawn. The source made the active and inactive calls. The calls are words filed in the database; no cut-off is given here.

How the values were obtained:
Assay type in all cases: functional
A549 = test: Cytotoxicity against human A549 cells
KB = test: Cytotoxicity against human KB cells by sulforhodamine B assay; conditions: for EC50: read-out: ED50 (the source's name)
[1] = Cytotoxicity against MDR human KB-VIN cells expressing P-glycoprotein
HCT-8 = test: Cytotoxicity against human HCT8 cells
A-431 = test: Cytotoxicity against human A431 cells; conditions: for EC50: read-out: ED50 (the source's name)
1A9 = test: Cytotoxicity against human 1A9 cells by sulforhodamine B assay; conditions: for EC50: read-out: ED50 (the source's name)

Row | Compound | EC50 (KB) [µg/mL] | EC50 (1A9) [µg/mL] | also measured
1 | CCN(CC)CCC(=O)O[C@H]1C[C@H]2OC[C@@]2(OC(C)=O)[C@H]2[C@H](OCc3ccccc3)[C@]3(O)C[C@H](OC(=O)[C@H](OC(=O)CCC(=O)Oc4c(C)c(C)c5c(c4C)OC(C)(CCC[C@@H](C)CCC[C@@H](C)CCCC(C)C)CC5)[C@@H](NCc4ccccc4)c4ccccc4)C(C)=C([C@@H](OC(C)=O)C(=O)[C@]12C)C3(C)C (stereo in doubt; 27) |  |  | Activity (A549): inactive; Activity (KB): inactive; Activity [1]: inactive; Activity (HCT-8): inactive; Activity (A-431): inactive; Activity (1A9): inactive
2 | COc1cccc(/C=C\C(C)=O)c1OC(=O)CCC(=O)O[C@@H](C(=O)O[C@H]1C[C@@]2(O)[C@@H](OCc3ccccc3)[C@@H]3[C@]4(OC(C)=O)CO[C@@H]4C[C@H](OC(=O)CN(C)C)[C@@]3(C)C(=O)[C@H](OC(C)=O)C(=C1C)C2(C)C)[C@@H](NCc1ccccc1)c1ccccc1 | 0.34 (≈ 0.287 µM) | 0.19 (≈ 0.16 µM) | 
3 | CC(=O)O[C@H]1C(=O)[C@]2(C)[C@@H](OC(=O)CN(C)C)C[C@H]3OC[C@@]3(OC(C)=O)[C@H]2[C@H](OCc2ccccc2)[C@]2(O)C[C@H](OC(=O)[C@H](OC(=O)CCC(=O)Oc3c(C)c(C)c4c(c3C)OC(C)(CCC[C@@H](C)CCC[C@@H](C)CCCC(C)C)CC4)[C@@H](NCc3ccccc3)c3ccccc3)C(C)=C1C2(C)C (some centres not stated) [listing 1 of 2 here] |  |  | EC50 (A-431): 0.2 µg/mL (≈ 0.14 µM)
4 | CC(=O)O[C@H]1C(=O)[C@]2(C)[C@@H](OC(=O)CN(C)C)C[C@H]3OC[C@@]3(OC(C)=O)[C@H]2[C@H](OCc2ccccc2)[C@]2(O)C[C@H](OC(=O)[C@H](OC(=O)CCC(=O)Oc3c(C)c(C)c4c(c3C)OC(C)(CCC[C@@H](C)CCC[C@@H](C)CCCC(C)C)CC4)[C@@H](NCc3ccccc3)c3ccccc3)C(C)=C1C2(C)C.CS(=O)(=O)O (some centres not stated) |  |  | EC50 (A-431): 0.1 µg/mL
5 | COc1cc(/C=C/C(C)=O)ccc1OC(=O)CCC(=O)O[C@@H](C(=O)O[C@H]1C[C@@]2(O)[C@@H](OCc3ccccc3)[C@@H]3[C@]4(OC(C)=O)CO[C@@H]4C[C@H](O)[C@@]3(C)C(=O)[C@H](OC(C)=O)C(=C1C)C2(C)C)[C@@H](NCc1ccccc1)c1ccccc1 | 0.005 (≈ 0.00454 µM) | 0.005 (≈ 0.00454 µM) | 
6 | CC(=O)O[C@H]1C(=O)[C@@]2(C)[C@H]([C@H](OCc3ccccc3)[C@]3(O)C[C@H](OC(=O)[C@H](OC(=O)/C=C(C)/C=C/C=C(C)/C=C/C4=C(C)CCCC4(C)C)[C@@H](NCc4ccccc4)c4ccccc4)C(C)=C1C3(C)C)[C@]1(OC(C)=O)CO[C@@H]1C[C@@H]2O | 0.2 (≈ 0.18 µM) | 0.49 (≈ 0.442 µM) | 
7 | CC(=O)O[C@H]1C(=O)[C@@]2(C)[C@H]([C@H](OCc3ccccc3)[C@]3(O)C[C@H](OC(=O)[C@H](OC(=O)CCC(=O)Oc4cc(O)c5c(=O)cc(-c6ccccc6)oc5c4)[C@@H](NCc4ccccc4)c4ccccc4)C(C)=C1C3(C)C)[C@]1(OC(C)=O)CO[C@@H]1C[C@@H]2O | 0.47 (≈ 0.404 µM) | 0.2 (≈ 0.172 µM) | 
8 | CC(=O)O[C@H]1C(=O)[C@@]2(C)[C@H]([C@H](OCc3ccccc3)[C@]3(O)C[C@H](OC(=O)[C@H](OC(=O)CCC(=O)Oc4c(C)c(C)c5c(c4C)OC(C)(C)CC5)[C@@H](NCc4ccccc4)c4ccccc4)C(C)=C1C3(C)C)[C@]1(OC(C)=O)CO[C@@H]1C[C@@H]2O | 0.94 (≈ 0.833 µM) | 0.2 (≈ 0.177 µM) | 
9 | CC(=O)O[C@H]1C(=O)[C@]2(C)[C@@H](OC(=O)CCC(=O)O)C[C@H]3OC[C@@]3(OC(C)=O)[C@H]2[C@H](OCc2ccccc2)[C@]2(O)C[C@H](OC(=O)[C@H](OC(=O)CCC(=O)Oc3c(C)c(C)c4c(c3C)OC(C)(CCC[C@@H](C)CCC[C@@H](C)CCCC(C)C)CC4)[C@@H](NCc3ccccc3)c3ccccc3)C(C)=C1C2(C)C.CCN(CC)CC (some centres not stated) |  |  | EC50 (A-431): 0.2 µg/mL
10 | CC(=O)O[C@H]1C(=O)[C@@]2(C)[C@H]([C@H](OCc3ccccc3)[C@]3(O)C[C@H](OC(=O)[C@H](OC(=O)CCC(=O)Oc4ccc5c(=O)c(O)c(-c6ccccc6)oc5c4)[C@@H](NCc4ccccc4)c4ccccc4)C(C)=C1C3(C)C)[C@]1(OC(C)=O)CO[C@@H]1C[C@@H]2O | 0.26 (≈ 0.224 µM) | 0.13 (≈ 0.112 µM) | 
11 | CC(=O)O[C@H]1C(=O)[C@]2(C)[C@@H](OC(=O)CN(C)C)C[C@H]3OC[C@@]3(OC(C)=O)[C@H]2[C@H](OCc2ccccc2)[C@]2(O)C[C@H](OC(=O)[C@H](OC(=O)CCC(=O)Oc3c(C)c(C)c4c(c3C)OC(C)(C)CC4)[C@@H](NCc3ccccc3)c3ccccc3)C(C)=C1C2(C)C | 9.79 (≈ 8.07 µM) | 1.01 (≈ 0.832 µM) | 
12 | CC(=O)O[C@H]1C(=O)[C@]2(C)[C@@H](OC(=O)CCC(=O)O)C[C@H]3OC[C@@]3(OC(C)=O)[C@H]2[C@H](OCc2ccccc2)[C@]2(O)C[C@H](OC(=O)[C@H](OC(=O)CCC(=O)Oc3c(C)c(C)c4c(c3C)OC(C)(CCC[C@@H](C)CCC[C@@H](C)CCCC(C)C)CC4)[C@@H](NCc3ccccc3)c3ccccc3)C(C)=C1C2(C)C (some centres not stated) [listing 1 of 2 here] |  |  | EC50 (A-431): 0.1 µg/mL (≈ 0.0695 µM)
13 | CC(=O)O[C@H]1C(=O)[C@]2(C)[C@@H](OC(=O)CN(C)C)C[C@H]3OC[C@@]3(OC(C)=O)[C@H]2[C@H](OCc2ccccc2)[C@]2(O)C[C@H](OC(=O)[C@H](OC(=O)CCC(=O)Oc3ccc4c(=O)c(O)c(-c5ccccc5)oc4c3)[C@@H](NCc3ccccc3)c3ccccc3)C(C)=C1C2(C)C | 0.09 (≈ 0.0722 µM) | 0.11 (≈ 0.0882 µM) | 
14 | CC(=O)O[C@H]1C(=O)[C@]2(C)[C@@H](OC(=O)CN(C)C)C[C@H]3OC[C@@]3(OC(C)=O)[C@H]2[C@H](OCc2ccccc2)[C@]2(O)C[C@H](OC(=O)[C@H](OC(=O)/C=C(C)/C=C/C=C(C)/C=C/C3=C(C)CCCC3(C)C)[C@@H](NCc3ccccc3)c3ccccc3)C(C)=C1C2(C)C | 7.65 (≈ 6.41 µM) | 4.47 (≈ 3.75 µM) | 
15 | CC(=O)O[C@H]1C(=O)[C@@]2(C)[C@H]([C@H](OCc3ccccc3)[C@]3(O)C[C@H](OC(=O)[C@H](OC(=O)CCC(=O)Oc4ccc5c(C)cc(=O)oc5c4)[C@@H](NCc4ccccc4)c4ccccc4)C(C)=C1C3(C)C)[C@]1(OC(C)=O)CO[C@@H]1C[C@@H]2O | 0.14 (≈ 0.129 µM) | 0.005 (≈ 0.00461 µM) | 
16 | CC(=O)O[C@H]1C(=O)[C@]2(C)[C@@H](OC(=O)CCC(=O)O)C[C@H]3OC[C@@]3(OC(C)=O)[C@H]2[C@H](OCc2ccccc2)[C@]2(O)C[C@H](OC(=O)[C@H](OC(=O)CCC(=O)Oc3c(C)c(C)c4c(c3C)OC(C)(CCC[C@@H](C)CCC[C@@H](C)CCCC(C)C)CC4)[C@@H](NCc3ccccc3)c3ccccc3)C(C)=C1C2(C)C (some centres not stated) [listing 2 of 2 here] |  |  | Activity (A549): inactive; Activity (KB): inactive; Activity [1]: inactive; Activity (HCT-8): inactive; Activity (1A9): inactive
17 | CC(=O)O[C@H]1C(=O)[C@]2(C)[C@@H](OC(=O)CN(C)C)C[C@H]3OC[C@@]3(OC(C)=O)[C@H]2[C@H](OCc2ccccc2)[C@]2(O)C[C@H](OC(=O)[C@H](OC(=O)CCC(=O)Oc3c(C)c(C)c4c(c3C)OC(C)(CCC[C@@H](C)CCC[C@@H](C)CCCC(C)C)CC4)[C@@H](NCc3ccccc3)c3ccccc3)C(C)=C1C2(C)C (some centres not stated) [listing 2 of 2 here] |  |  | Activity (A549): inactive; Activity (KB): inactive; Activity [1]: inactive; Activity (HCT-8): inactive; Activity (1A9): inactive
18 | COc1cc(/C=C/C(C)=O)ccc1OC(=O)CCC(=O)O[C@@H](C(=O)O[C@H]1C[C@@]2(O)[C@@H](OCc3ccccc3)[C@@H]3[C@]4(OC(C)=O)CO[C@@H]4C[C@H](OC(=O)CN(C)C)[C@@]3(C)C(=O)[C@H](OC(C)=O)C(=C1C)C2(C)C)[C@@H](NCc1ccccc1)c1ccccc1 | 0.7 (≈ 0.591 µM) | 0.63 (≈ 0.531 µM) | 
